The test system of the assay is middle cerebral artery (MCA) thrombosis model of monkeys. The experiment in a line: Example 19: middle cerebral artery (MCA) thrombosis model of monkeys. The following applies: for infarct volume: Day 28 after MCA thrombosis.
[1] abbreviates: high dose 30 mg/kg/time transdermal, twice a day.
The mark [2] stands for this setting: low dose 15 mg/kg/time transdermal, twice a day.

Procedure: Aspirin was administered orally by gavage using a nasal catheter with a disposal syringe. The catheter was inserted into the stomach through the mouth. The treatment was once per day of MCA thrombosis (day 0), twice per day for 27 days.
The monkeys that had been fastened for at least 12 h were anesthetized with intramuscular administration of ketamine hydrochloride (20 mg/kg), and placed on an operation-bed. Anesthesia was continued with 1.0% isoflurane in O2 gas until 30 min. The inhalation anesthesia was performed with anesthesia machines (SN23402, Hallowell engineering and manufacturing corporation, USA) and respirators (SN23402, Hallowell engineering and manufacturing corporation, USA), and placed on an operation-bed. During anesthesia, body temperature of the animals (rectal temperature) was controlled between 37.0±0.5° C. by heating mattresses (XMTA-7000, Delixi Electric., Ltd.).
Under anesthesia, the left eye was enucleated using a bipolar coagulation device (Valleylab Force 1C, USA). A craniotomy was then performed supralaterally to the left side of the optic nerve. The next day animals were anesthetized with ketamine hydrochloride (20 mg/kg) and the dura and subarachnoid membrane were opened. MCA thrombosis was induced by photochemical reaction. The proximal part of the main MCA trunk. was irradiated with green light wave length 532 nm achieved by use of a xenon lamp (GL532T3-100FC, Shanghai Laser& Optics Century Col., Ltd.). The irradiation was directed by a 3-mm diameteroptic fiber mounted on a micromanipulator. Irradiation was started and rose bengal 20 mg/kg was injected intravenously. Photoirradiation was continued for a 30 min. The dura was then covered with a moist gelatin sponge.
Neurological deficits (see Table 3) were assessed 1, 3, 5, 7, 14 and 28 days after the onset of MCA thrombosis (day 0) in a blind manner. The neurological deficits was scored on consciousness, sensory system, motor system and skeletal muscle coordination, and the total neurological deficit score was calculated by summing the scores of consciousness, sensory system, motor system and skeletal muscle coordination.
The survival monkeys were deeply anesthetized with pentobarbital sodium (35 mg/kg, i.v.) 28 days after the onset of MCA thrombosis. After cutting the atriums of heart, 200 mL of heparinized physiological saline (10 U/mL) was allowed to perfuse the brain via the common carotid arteries, and followed by perfusion of 200 mL of 10% formalin neutral buffer solution. The whole brain was removed, and then was put in pathology sample preservation packs containing 10% formalin neutral buffer solution. For each brain sample, the coronal sections (thickness: 7-8 μm) per site were prepared at 10 sites at 4-mm intervals. Slices per site were each stained with H & E reagent.
Measurement of cerebral infarct lesions was carried out in a blind manner. The infarct lesions in the ischemic side are defined as a necrotic portion compared with that in the contralateral side. The infarcted area of left cerebral hemisphere (A) in the cross-sections was traced and measured using a computerized image analysis system (image J).
When the infarct size of 2 serial section was made into D and D′, the infarcted volume using the thickness (4 mm) of a section is measured in the following formula:
Total infarcted volume is calculated by summing the infarcted volume of the 10 serial sections.

As to `CCN(CC)CCOC(=O)c1ccccc1OC(C)=O.Cl` [Compound-1], under setting [1], the infarct volume is 988 mm^3, the Mortality rate is given as 0/7, the “gemistocytic astrocytes in the penumbra area” value is recorded as “many gemistocytic astrocytes” and the “liquefaction in the infarct area (histopathology)” value was “slight”. Also, under setting [2], the infarct volume came out at 945 mm^3, the Mortality rate is reported as 0/5 and the “liquefaction in the infarct area (histopathology)” value is “moderate”. Further, the neurologic deficits entry (low dose (15 mg/kg) and high dose (30 mg/kg) groups, transdermal twice a day) is “dose-dependently improved”. For the same compound, the “delayed neuronal death in the distant area” value (transdermal treatment groups) is recorded as “slightly”.

Values taken from patent US20250099491A1, “PREVENTION OR TREATMENT OF CARDIOVASCULAR DISEASES WITH HIGH PENETRATION PRODRUGS OF ASPIRIN AND OTHER NSAIDS” (Techfields Inc., priority 2022, published 2025).
